In US7879853B2, “4,6-disubstituted pyrimidines and their use as protein kinase inhibitors” (Bayer Schering Pharma AG, priority 2004, dated 2011):

Tested on: phosphorylated Akt1 (Ser473) in MCF7 cells
Assay: Cellular PI3K/Akt pathway assay (pAkt-ELISA)
Format: cell-based
Details: Homo sapiens, β-Heregulin (20 ng/ml) stimulation, 48 h, read-out: Akt pathway inhibition (pAkt-ELISA): IC50
Procedure: In order to study the cellular activity of the compounds according to the invention, an ELISA-based assay has been established. The assay is based on a Sandwich ELISA kit (PathScan™ Phospho-Akt1 (Ser473); Cell Signaling, USA; #7160).
The assay detects endogenous levels of phosphorylated Akt1 protein. A phospho-Akt (Ser473) antibody (Cell Signaling, USA; #9271) has been coated onto the microwells. After incubation with cell lysates, the phosphorylated Akt protein is captured by the coated antibody. Following extensive washing, Akt1 monoclonal antibody (Cell Signaling, USA; #2967) is added to detect the captured phospho-Akt1 protein. HRP-linked anti-mouse antibody (Cell Signaling, USA; #7076) is then used to recognize the bound detection antibody. […] The magnitude of optical density for this developed color is proportional to the quantity of phosphorylated Akt1 protein. […]
Cells are harvested under nondenaturating conditions and lysed with brief sonification in 1× cell lyses buffer (20 mM Tris (pH7.5), 150 mM NaCl, 1 mM ethylene diaminetetraacetate (EDTA), 1 mM ethylene glycolbis-(2-aminoethyl)-N,N,N′,N′-tetraacetic acid (EGTA), 1% Triton X-100, 2.5 mM sodium pyrophosphate, 1 mM β-glycerolphosphate, 1 mM Na3VO4, 1 μg/ml leupeptin). […] The absorbance is read at 450 nm (Wallac Victor2; Perkin Elmer, USA) within 30 minutes after adding STOP solution. […]

CC(C)(N)c1ccc(C(=O)Nc2ccc(Nc3cc(-c4cccc5c4oc4ccccc45)ncn3)cc2)cc1 [Compound 69, 4-(1-Amino-1-methyl-ethyl)-N-[4-(6-dibenzofuran-4-yl-pyrimidin-4-ylamino)-phenyl]-benzamide trifluoracetate]
IC50: 6 µM
